Measurements taken from patent publication US12297193B2, “PTPN2/PTP1B degrader and therapeutic method thereof” (NORTHRIDGE HEALTH GROUP (HONG KONG) CO., LIMITED, priority 2023, dated 2025).
“Also recorded” adds a separate entry of the source. Like-named read-outs stand apart in the source and are kept apart here.

Key:
[1] = PK study in SD rats after a single intravenous administration; type: in vivo; details: for clearance / concentration at 0.083 h / concentration at 0.25 h / concentration at 0.5 h / concentration at 1 h / concentration at 2 h / concentration at 4 h / concentration at 8 h / concentration at 10 h / concentration at 24 h / AUC(0-t): Sprague-Dawley (SD), rat, plasma; for AUC(0-t): read-out: AUC0-24 h
Procedure: A PK study of the compounds after a single intravenous administration.
SD rats were randomly assigned to 5 groups (3 rats/group). Blood samples were collected from animals at 0.083 h, 0.25 h, 0.5 h, 1 h, 2 h, 4 h, 8 h, 10 h and 24 h after administration. Blood samples were collected in an anticoagulant tube containing EDTA-K2. The concentration of compounds in plasma were determined by an LC-MS/MS method with the lower limit of quantitation (LLOQ) of 0.50 ng/mL. Pharmacokinetic parameters were calculated with WinNonlin to assess the PK characteristics in SD rats. The formulation prescription was DMSO: Cremophor EL: 5% Glucose Solution=5:5:90 (v/v/v).

PTPN2 = target: T1, PTPN2 (Homo sapiens, UniProt P17706); assay: Western blot, PTPN2 degradation in HEK293T cells; type: cell-based; details: 48 hours incubation; for DC50 / Dmax: Western blot; for DC50: read-out: Relative DC50, PTPN2 degradation; for Dmax: HEK-293T
T1 construct: endogenous in cells; host or cells: HEK293T
T1 sequence (P17706 1-415): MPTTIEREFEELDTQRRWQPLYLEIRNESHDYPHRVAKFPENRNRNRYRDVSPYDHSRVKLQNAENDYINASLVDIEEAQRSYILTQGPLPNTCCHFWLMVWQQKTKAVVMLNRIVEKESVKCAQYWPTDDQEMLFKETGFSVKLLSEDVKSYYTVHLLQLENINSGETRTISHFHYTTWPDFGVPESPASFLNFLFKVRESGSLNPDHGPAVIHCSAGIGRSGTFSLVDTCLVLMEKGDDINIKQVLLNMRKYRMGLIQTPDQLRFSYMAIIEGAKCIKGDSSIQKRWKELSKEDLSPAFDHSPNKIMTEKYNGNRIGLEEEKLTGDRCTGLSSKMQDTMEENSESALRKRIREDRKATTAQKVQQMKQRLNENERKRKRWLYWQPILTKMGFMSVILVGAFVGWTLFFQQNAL
Procedure: (§1) 1. Sample preparation: 150,000 HEK293T cells per well were seeded in a 24-well plate and incubated overnight. Compounds were added to the wells at the final concentrations of 20 μM, 10 μM, 5 μM, 2 μM, 1 μM, 500 nM, 200 nM, 100 nM, 50 nM, 20 nM, 5 nM, 0 nM (solvent control) and medium (negative control) and incubated for 48 hours. After incubation, the supernatants were discarded. Cells were washed with pre-chilled PBS once, 40 μL cell lysis buffer were added to lyse the cells and then centrifuged at 14000 g, 4° C. for 20 mins. The supernatant was aspirated and the protein concentration were quantified. 5× loading buffer was added into the samples, and the samples were heated at 70° C. for 10 minutes.
(§2) 2. Experimental procedure: 20 μg protein were added to each well then start SDS-PAGE electrophoresis. The protein was transferred to the PVDF membrane.
(§3) The blotting current was set at 250 mA for 90 min. 5% BSA in TBST was used to block the membrane for 1 h at room temperature. After diluting the primary antibody according to Table 2, the membrane was hybridized overnight at 4° C. The membrane was washed three times with TBST, 7 minutes each time. After diluting the secondary antibody, the membrane was incubated for 2 h at room temperature. The membrane was washed three times with TBST for 7 min each time.
(§4) ImageJ software was used to detect the gray value of each band and enter it into the following formula as the degradation rate (D): […]
(§5) D is the degradation rate, V refers to the gray value: target refers to the name of the protein targeted for degradation, housekeeping refers to housekeeping proteins such as GAPDH and beta-actin: DMSO refers to the solvent DMSO added only to dissolve PROTAC and incubate cells: Lane X refers to a lane with a specific incubation concentration; Lane Y refers to a lane where only the solvent DMSO is added to incubate cells.
(§6) A graph was drawn with degradation rate as the vertical axis and drug incubation concentration as the horizontal axis, and DC50 and Dmax were read and recorded in Tables 3, 4, 5 and 6.

[2] = test system: HEK293/Luc (IFN-γ) stable cell line; assay: Luciferase reporter assay in HEK293/Luc (IFN-γ) cells; type: cell-based; details: Homo sapiens; stimulated with 30 ng/mL IFN-γ in HEK293/Luc; 6 h incubation; read-out: Absolute EC50
Procedure: HEK293/Luc (IFN-γ) stable cell line (Cat: M00953) and Fire-Lumi luciferase detection kit (Cat: L00877C) were purchased from GenScript. The complete culture medium formulation was DMEM containing 10% FBS and 1% Penicillin-Streptomycin. For EC50 detection, 60 μL HEK293/Luc (IFN-γ) cells were seeded at the density of 10,000 cells/well into 384 well assay plates (761601, NEST) using the medium above mentioned.
The working solutions for each sample were prepared triplicated at 9 gradient doses, starting from 10 µM and diluted by 4 folds. The IFN-γ working solution was prepared at 0.8 ng/mL concentration. The sample working solution and IFN-γ working solution were mixed at the volume of 1:1, and then 20 μl/well of the aliquot was added into the 384-well plate and cells were incubated at 37° C./5% CO2 for 6 h. 40 μL/well prewarmed detection reagents were added into the cells. Luminescent signals could be determined after 5-minute incubation. The data were plotted and four-parameter fitting was performed on the test data to obtain the relative EC50 value of the curve by Prism GraphPad 9 software (Table 1).

PTP1B = target: T2, PTP1B (Homo sapiens, UniProt P18031); assay: Western blot, PTP1B degradation in HEK293T cells; type: cell-based; details: 48 hours incubation; for DC50 / Dmax: Western blot; for DC50: read-out: Relative DC50, PTP1B degradation; for Dmax: HEK-293T
T2 construct: endogenous in cells; host or cells: HEK293T
T2 sequence (P18031 1-435): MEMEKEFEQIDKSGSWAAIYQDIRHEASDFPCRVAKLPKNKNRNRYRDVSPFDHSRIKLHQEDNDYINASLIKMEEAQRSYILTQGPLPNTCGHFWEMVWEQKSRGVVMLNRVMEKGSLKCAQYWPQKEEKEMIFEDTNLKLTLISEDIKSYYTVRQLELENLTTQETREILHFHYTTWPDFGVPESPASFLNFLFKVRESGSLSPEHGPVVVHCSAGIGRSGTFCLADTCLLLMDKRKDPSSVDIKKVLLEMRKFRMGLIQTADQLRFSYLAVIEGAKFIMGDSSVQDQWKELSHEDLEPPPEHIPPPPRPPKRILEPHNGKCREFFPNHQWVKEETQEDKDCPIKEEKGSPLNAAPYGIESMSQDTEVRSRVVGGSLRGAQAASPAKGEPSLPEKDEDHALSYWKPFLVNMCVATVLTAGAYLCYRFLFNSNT
Procedure: as §1, §2, §3, §4, §5, §6

| Compound | clearance ([1]; 1 mg/kg) [mL/min/kg] | concentration at 0.083 h ([1]; 1 mg/kg) [ng/mL] | concentration at 0.25 h ([1]; 1 mg/kg) [ng/mL] | concentration at 0.5 h ([1]; 1 mg/kg) [ng/mL] | concentration at 1 h ([1]; 1 mg/kg) [ng/mL] | concentration at 2 h ([1]; 1 mg/kg) [ng/mL] | concentration at 4 h ([1]; 1 mg/kg) [ng/mL] | concentration at 8 h ([1]; 1 mg/kg) [ng/mL] | concentration at 10 h ([1]; 1 mg/kg) [ng/mL] | concentration at 24 h ([1]; 1 mg/kg, 24 h) [ng/mL] | AUC(0-t) ([1]; 1 mg/kg) [ng·h/mL] | DC50 (PTPN2) [nM] | Dmax (PTPN2) [%] | also measured |
| --- | --- | --- | --- | --- | --- | --- | --- | --- | --- | --- | --- | --- | --- | --- |
| [2H]C([2H])(c1ccc2oc(N3CCC(c4ccc5c6c(cccc46)C(=O)N5C4CCC(=O)NC4=O)CC3)nc2c1)S(=O)(=O)N1CCC(Nc2cccc(-c3sc(C(=O)O)c(OCC(=O)O)c3Cl)c2)CC1(C)C (stereo not shown) [Compound 151] | 0.568 | 19400 | 14900 | 11500 | 7920 | 3810 | 1050 | 345 | 279 | 57.5 | 29700 | – | – | – |
| O=C(O)COc1c(C(=O)O)sc(-c2cccc(NC3CCN(S(=O)(=O)Cc4ccc5oc(N6CCC(c7ccc8c9c(cccc79)C(=O)N8C7CCC(=O)NC7=O)CC6)nc5c4)C4(CC4)C3)c2)c1Cl (stereo not shown) [Compound 57] | 0.351 | 21900 | 17000 | 13200 | 8730 | 5430 | 2870 | 1090 | 809 | 206 | 48700 | 51.2 | 97.2 | – |
| CC1(C)C[C@@H](Nc2cccc(-c3sc(C(=O)O)c(OCC(=O)O)c3Cl)c2)CCN1S(=O)(=O)Cc1cccc(NC(=O)N2CCC(c3ccc4c5c(cccc35)C(=O)N4[C@H]3CCC(=O)NC3=O)CC2)c1 [Ref. Cpd, reference compound] | – | – | – | – | – | – | – | – | – | – | – | 29.3 | 96.3 | EC50 [2]: 473 nM; Plasma concentration ([1]; 2 mg/kg, 24 h, LLOQ 0.50 ng/mL): BLOQ; clearance ([1]; 2 mg/kg): 4.46 mL/min/kg; concentration at 0.083 h ([1]; 2 mg/kg): 22700 ng/mL; concentration at 0.25 h ([1]; 2 mg/kg): 8300 ng/mL; concentration at 0.5 h ([1]; 2 mg/kg): 1290 ng/mL; concentration at 1 h ([1]; 2 mg/kg): 318 ng/mL; concentration at 2 h ([1]; 2 mg/kg): 148 ng/mL; concentration at 4 h ([1]; 2 mg/kg): 79.4 ng/mL; concentration at 8 h ([1]; 2 mg/kg): 29.3 ng/mL; concentration at 10 h ([1]; 2 mg/kg): 18.9 ng/mL; AUC(0-t) ([1]; 2 mg/kg): 7490 ng·h/mL; DC50 (PTP1B): 271 nM; Dmax (PTP1B): 96.8% |
| CC1(C)CC(Nc2cccc(-c3sc(C(=O)O)c(OCC(=O)O)c3Cl)c2)CCN1S(=O)(=O)Cc1ccc2oc(N3CCC(c4ccc5c6c(cccc46)C(=O)N5C4CCC(=O)NC4=O)CC3)nc2c1 (stereo not shown) [Compound 21] | 0.661 | 18100 | 14600 | 9660 | 5980 | 2890 | 1000 | 372 | 321 | 98.6 | 27200 | 10.1 | 100 | Degradation ability on PTPN2 protein at different concentrations (FIG. 1), in words (PTPN2; 5 nM to 20 μM): good degradation ability on PTPN2 protein in a dose-dependent manner; also recorded: completely degraded at high concentrations; EC50 [2]: 48 nM; Effect on PTP1B compared with PTPN2 at the same concentration (selectivity, FIG. 1), in words (PTP1B): the degradation ability of PTPN2 is better than that of PTP1B; also recorded: much weaker than that of PTPN2; DC50 (PTP1B): 861 nM; Dmax (PTP1B): 97.3% |
| CC1(C)CC(Nc2cccc(-c3sc(C(=O)O)c(OC(F)(F)C(=O)O)c3Cl)c2)CCN1S(=O)(=O)Cc1ccc2oc(N3CCC(c4ccc5c6c(cccc46)C(=O)N5C4CCC(=O)NC4=O)CC3)nc2c1 (stereo not shown) [Compound 78] | – | – | – | – | – | – | – | – | – | – | – | 55.2 | 100 | – |
| CC1(C)CC(Nc2cccc(-c3sc(C(=O)O)c(OCC(=O)O)c3Cl)c2)CCN1S(=O)(=O)Cc1ccc2cnc(N3CCC(c4ccc5c6c(cccc46)C(=O)N5C4CCC(=O)NC4=O)CC3)nc2c1 (stereo not shown) [Compound 16] | – | – | – | – | – | – | – | – | – | – | – | 38.8 | 96.5 | – |
| O=C(O)COc1c(C(=O)O)sc(-c2cccc(NC3CCN(S(=O)(=O)Cc4ccc5oc(N6CCC(c7ccc8c9c(cccc79)C(=O)N8C7CCC(=O)NC7=O)CC6)nc5c4)CC3)c2)c1Cl (stereo not shown) [Compound 23] | 0.684 | 21700 | 17900 | 12600 | 7110 | 2420 | 525 | 110 | 95.1 | 39.6 | 24700 | – | – | – |
